Experimental data taken from patent US20140004530A1, “METHOD FOR THE EVALUATION OF COMPOUND-TARGET INTERACTIONS ACROSS SPECIES” (CELLZOME GMBH, priority 2010, published 2014).
pIC50: −log10 of the molar value. Values belong to the molecule of their own block, whether it stands above or below them.

Legend:
PI3Kβ [1] = target: T1, PI3Kβ (Mus musculus, UniProt Q8BTI9); experiment: Competition binding profile with the affinity matrix in mixed extracts of human and rodent cell lines; settings: mixed extracts of human (Jurkat) and mouse RAW264.7 cells
T1 construct: acquired in mixed extracts of human, mouse and rat cell lines; endogenous in cells
Method: (§1) Since compound efficacy and toxicity are evaluated in laboratory animals, it is important to determine its potency and selectivity in the relevant species. In order to minimize inter-assay variation, we used a mass spectrometric targeted data acquisition approach (Savitski et al., 2010. J. Am. Soc. Mass. Spectrom. 21(10):1668-1679) based on species specific proteotypic peptides (FIG. 7) and mixed cell lysates. Competition binding profiles of compound 2 with the affinity matrix were acquired in mixed extracts of human, mouse and rat cell lines.
(§2) Proteomics-based inhibitor profiling. Affinity profiling assays were performed as described previously ([…]). Derivatized sepharose® beads (35 μl beads per sample) were equilibrated in lysis buffer and incubated with 1 ml (5 mg protein) cell lysate, which had been preincubated with test compound or vehicle for 45 min, on an end-over-end shaker for 1 hour. Incubation was done at 4° C. for all compounds. Beads were transferred to disposable columns (MoBiTec), washed with lysis buffer containing 0.2% NP-40 and eluted with 50 μl 2× SDS sample buffer. Proteins were alkylated with […] iodoacetamide for 30 minutes, separated on 4-12% NuPAGE (Invitrogen), and stained with colloidal Coomassie.
(§3) Sample preparation for mass spectrometry. Gels were cut into slices across the entire separation range and subjected to in-gel digestion. Peptide extracts were labeled with tandem mass tags (TMT®) (Thermo-Fisher Scientific) in 40 mM triethylammoniumbicarbonate (TEAB), pH 8.53. After quenching of the reaction with glycin labeled extracts were combined. For compound profiling experiments extracts from vehicle treated samples were labeled with TMT® reagent 131, and combined with extracts from compound-treated samples labeled with TMT® reagents 126-130, optionally fractionated using reversed phase chromatography at pH 12, dried and acidified prior to LC-MS/MS analysis.
(§4) LC-MS/MS analysis. Samples were dried in vacuo and resuspended in 0.1% formic acid in water and aliquots of the sample were injected into a nano-LC system (Eksigent 1 D+) coupled to LTQ-Orbitrap mass spectrometers (Thermo-Finnigan). Peptides were separated on custom 50 cm×[…] (internal diameter) reversed-phase columns (Reprosil) at 40° C. Gradient elution was performed from 2% acetonitrile to 40% acetonitrile in 0.1% formic acid over 2-4 hours. […] Intact peptides were detected in the Orbitrap at 30.000 resolution. […]
(§5) Creation of peptide inclusion lists. […] Subsequently for each human and mouse (or rat) protein that was of interest to the study the selected peptides were ranked according to the quality of the quantification and ease of identification inherent to these peptides (Savitski et al., 2010, J. Am. Soc. Mass. Spectrom. 21(10):1668-1679). […]
(§6) Peptide and protein quantification. […]

PI3Kγ [2] = target: T2, PI3Kγ (Mus musculus, UniProt Q9JHG7); experiment: as above; settings: mixed extracts of human (Jurkat) and mouse RAW264.7 cells
T2 construct: acquired in mixed extracts of human, mouse and rat cell lines; endogenous in cells
Method: as §1, §2, §3, §4, §5, §6

PI3Kγ [3] = experiment: as above; settings: mixed extracts of human (Jurkat) and rat RBL-1 cells
Method: as §1, §2, §3, §4, §5, §6

PI3Kβ [4] = target: T3, PI3Kβ (Rattus norvegicus, UniProt Q9Z1L0); experiment: as above; settings: mixed extracts of human (Jurkat) and rat RBL-1 cells
T3 construct: acquired in mixed extracts of human, mouse and rat cell lines; endogenous in cells
Method: as §1, §2, §3, §4, §5, §6

PIK3Cb (PI3Kbeta) [5] = target: T4, PIK3Cb (PI3Kbeta) (Mus musculus, UniProt Q8BTI9); experiment: Competition binding to affinity matrix in mixed human/mouse cell lysate, quantitative MS of species-specific peptides; settings: HL-60 + RAW 264.7 mixed lysate
T4 construct: Cell lysates from a human (HL60) and a mouse cell line (Raw 264.7) were prepared; endogenous in cells; host or cells: RAW264.7
Method: (§7) Cell lysates from a human (HL60) and a mouse cell line (Raw 264.7) were prepared and subsequently mixed at a 1:1 ratio. Compound 1 was added at various concentrations (3 μM, 0.75 μM, 0.047 μM, 0.012 μM, plus DMSO solvent control) to aliquots of this mixed cell lysate and allowed to bind to the proteins in the lysate. Subsequently, the affinity matrix (beads with immobilized ligands) was added to each aliquot to capture proteins that were not interacting with compound 1. The generation of the affinity matrix (beads with immobilized ligands) was described in WO 2009/098021.
(§8) After the incubation time of 60 minutes the beads with captured proteins were separated from the lysate and bead bound proteins were eluted in SDS sample buffer and subsequently separated by SDS-Polyacrylamide gel electrophoresis. Electrophoresis was stopped after 20 minutes and the gel was stained with colloidal Coomassie. The stained area of each gel lane was cut out and subjected to in-gel proteolytic digestion with trypsin. Peptides originating from the different aliquots treated with compound 1 and the DMSO solvent control were labeled with isobaric tagging reagents (Tandem mass tag (TMT®) reagents, Thermofisher). The TMT® reagents are a set of multiplexed, amine-specific, stable isotope reagents that can label peptides in up to six different biological samples enabling simultaneous identification and quantitation of peptides. The combined samples were analyzed with a nano-flow liquid chromatography system coupled online to a tandem mass spectrometer (LC-MS/MS) experiment followed by reporter ion quantitation in the MS/MS spectra (Ross et al., 2004. Mol. Cell. Proteomics 3(12):1154-1169; Dayon et al., 2008. Anal. Chem. 80(8):2921-2931; Thompson et al., 2003. Anal. Chem. 75(8):1895-1904). Further experimental protocols can be found in WO2006/134056 and a previous publication (Bantscheff et al., 2007. Nature Biotechnology 25, 1035-1044).
(§9) Cells were homogenized in a Potter S homogenizer in lysis buffer: 50 mM Tris-HCl, 0.8% NP40, 5% glycerol, 150 mM NaCl, 1.5 mM MgCl2, 25 mM NaF, 1 mM sodium vanadate, 1 mM DTT, pH 7.5. One complete EDTA-free tablet (protease inhibitor cocktail, Roche Diagnostics, 1 873 580) per 25 ml buffer was added. The material was dounced 20 times using a mechanized POTTER S, transferred to 50 ml falcon tubes, incubated for 30 minutes rotating at 4° C. and spun down for 10 minutes at 20,000×g at 4° C. (10,000 rpm in Sorvall SLA600, precooled). The supernatant was transferred to an ultracentrifuge (UZ)-polycarbonate tube (Beckmann, 355654) and spun for 1 hour at 145.000×g at 4° C. (40.000 rpm in Ti50.2, pre-cooled). The supernatant was transferred again to a fresh 50 ml falcon tube, the protein concentration was determined by a Bradford assay (BioRad) and samples containing 5 mg of protein per aliquot were prepared. The samples were immediately used for experiments or frozen in liquid nitrogen and stored frozen at −80° C. Cell extracts from human HL60 cells and mouse raw 264.7 cells were mixed in a one to one (1:1) ratio.
(§10) Sepharose®-beads with the immobilized ligands (35 μl beads per aliquot) were equilibrated in lysis buffer and incubated with a cell lysate sample containing 5 mg of protein on an end-over-end shaker (Roto Shake Genie, Scientific Industries Inc.) for 60 minutes at 4° C. Beads were collected, transferred to Mobicol-columns (MoBiTech 10055) and washed with 10 ml lysis buffer containing 0.4% NP40 detergent, followed by 5 ml lysis buffer containing 0.2% detergent. To elute bound proteins, 60 μl 2× SDS sample buffer was added to the column. The column was incubated for 30 minutes at 4° C. and the eluate was transferred to a siliconized microfuge tube by centrifugation. Proteins were then alkylated with 108 mM iodoacetamid. Proteins were then separated by SDS-Polyacrylamide electrophoresis (SDS-PAGE). Suitable gel bands were cut out and subjected to in-gel proteolytic digestion with trypsin. […]

PIK4Ca = target: T5, PIK4Ca (Homo sapiens, UniProt P42356); experiment: as above; settings: HL-60 + RAW 264.7 mixed lysate
T5 construct: Cell lysates from a human (HL60) and a mouse cell line (Raw 264.7) were prepared; endogenous in cells; host or cells: HL60
Method: as §7, §8, §9, §10

PIK3Cd (PI3Kδ) [6] = target: T6, PIK3Cd (PI3Kδ) (Mus musculus, UniProt O35904); experiment: as above; settings: HL-60 + RAW 264.7 mixed lysate
T6 construct: Cell lysates from a human (HL60) and a mouse cell line (Raw 264.7) were prepared; endogenous in cells; host or cells: RAW264.7
Method: as §7, §8, §9, §10

PIK3Cd (PI3Kδ) [7] = target: T7, PIK3Cd (PI3Kδ) (Homo sapiens, UniProt O00329); experiment: as above; settings: for pIC50: HL-60 + RAW 264.7 mixed lysate
T7 construct: Cell lysates from a human (HL60) and a mouse cell line (Raw 264.7) were prepared; endogenous in cells; host or cells: HL60
Method: as §7, §8, §9, §10

PIK3R4 = target: T8, PIK3R4 (Homo sapiens, UniProt Q99570); experiment: as above; settings: Experiment 1 (human/mouse 1); HL-60 + RAW 264.7 mixed lysate
T8 construct: Cell lysates from a human (HL60) and a mouse cell line (Raw 264.7) were prepared; endogenous in cells; host or cells: HL60
Method: as §7, §8, §9, §10

PIK4Cb = target: T9, PIK4Cb (Homo sapiens, UniProt Q9UBF8); experiment: as above; settings: HL-60 + RAW 264.7 mixed lysate
T9 construct: Cell lysates from a human (HL60) and a mouse cell line (Raw 264.7) were prepared; endogenous in cells; host or cells: HL60
Method: as §7, §8, §9, §10

PIK3Cg (PI3Kγ) [8] = target: T10, PIK3Cg (PI3Kγ) (Homo sapiens, UniProt P48736); experiment: as above; settings: for pIC50: HL-60 + RAW 264.7 mixed lysate
T10 construct: Cell lysates from a human (HL60) and a mouse cell line (Raw 264.7) were prepared; endogenous in cells; host or cells: HL60
T10 sequence (P48736 whole entry): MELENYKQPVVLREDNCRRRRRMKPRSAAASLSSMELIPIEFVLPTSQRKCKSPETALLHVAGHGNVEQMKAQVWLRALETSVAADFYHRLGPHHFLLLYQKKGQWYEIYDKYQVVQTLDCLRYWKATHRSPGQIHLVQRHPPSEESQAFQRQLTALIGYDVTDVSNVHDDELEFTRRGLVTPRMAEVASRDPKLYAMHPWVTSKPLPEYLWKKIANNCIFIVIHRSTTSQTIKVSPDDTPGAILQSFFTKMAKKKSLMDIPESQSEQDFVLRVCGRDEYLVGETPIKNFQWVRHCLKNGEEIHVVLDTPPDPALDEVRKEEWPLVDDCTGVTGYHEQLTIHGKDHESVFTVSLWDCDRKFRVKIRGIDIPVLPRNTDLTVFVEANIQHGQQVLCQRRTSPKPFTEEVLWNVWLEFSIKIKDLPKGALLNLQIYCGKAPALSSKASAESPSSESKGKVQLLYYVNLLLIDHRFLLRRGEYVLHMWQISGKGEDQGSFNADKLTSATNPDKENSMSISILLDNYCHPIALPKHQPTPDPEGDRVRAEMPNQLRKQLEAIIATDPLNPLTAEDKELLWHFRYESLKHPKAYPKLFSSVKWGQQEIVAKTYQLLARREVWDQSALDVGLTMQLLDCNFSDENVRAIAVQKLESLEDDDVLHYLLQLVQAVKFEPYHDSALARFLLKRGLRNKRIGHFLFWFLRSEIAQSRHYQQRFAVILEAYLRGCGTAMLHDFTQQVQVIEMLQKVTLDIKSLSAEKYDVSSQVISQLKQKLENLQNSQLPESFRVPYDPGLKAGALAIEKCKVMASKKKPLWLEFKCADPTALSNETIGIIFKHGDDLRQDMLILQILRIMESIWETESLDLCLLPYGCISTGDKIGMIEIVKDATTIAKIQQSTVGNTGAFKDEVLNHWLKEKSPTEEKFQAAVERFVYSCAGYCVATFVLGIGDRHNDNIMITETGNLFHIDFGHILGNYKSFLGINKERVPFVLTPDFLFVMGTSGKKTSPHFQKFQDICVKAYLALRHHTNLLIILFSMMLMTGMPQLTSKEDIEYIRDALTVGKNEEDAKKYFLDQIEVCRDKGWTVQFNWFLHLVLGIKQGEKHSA
Method: as §7, §8, §9, §10

PIK3Cg (PI3Kγ) [9] = target: T11, PIK3Cg (PI3Kγ) (Mus musculus, UniProt Q9JHG7); experiment: as above; settings: for pIC50: HL-60 + RAW 264.7 mixed lysate
T11 construct: Cell lysates from a human (HL60) and a mouse cell line (Raw 264.7) were prepared; endogenous in cells; host or cells: RAW264.7
T11 sequence (Q9JHG7 whole entry): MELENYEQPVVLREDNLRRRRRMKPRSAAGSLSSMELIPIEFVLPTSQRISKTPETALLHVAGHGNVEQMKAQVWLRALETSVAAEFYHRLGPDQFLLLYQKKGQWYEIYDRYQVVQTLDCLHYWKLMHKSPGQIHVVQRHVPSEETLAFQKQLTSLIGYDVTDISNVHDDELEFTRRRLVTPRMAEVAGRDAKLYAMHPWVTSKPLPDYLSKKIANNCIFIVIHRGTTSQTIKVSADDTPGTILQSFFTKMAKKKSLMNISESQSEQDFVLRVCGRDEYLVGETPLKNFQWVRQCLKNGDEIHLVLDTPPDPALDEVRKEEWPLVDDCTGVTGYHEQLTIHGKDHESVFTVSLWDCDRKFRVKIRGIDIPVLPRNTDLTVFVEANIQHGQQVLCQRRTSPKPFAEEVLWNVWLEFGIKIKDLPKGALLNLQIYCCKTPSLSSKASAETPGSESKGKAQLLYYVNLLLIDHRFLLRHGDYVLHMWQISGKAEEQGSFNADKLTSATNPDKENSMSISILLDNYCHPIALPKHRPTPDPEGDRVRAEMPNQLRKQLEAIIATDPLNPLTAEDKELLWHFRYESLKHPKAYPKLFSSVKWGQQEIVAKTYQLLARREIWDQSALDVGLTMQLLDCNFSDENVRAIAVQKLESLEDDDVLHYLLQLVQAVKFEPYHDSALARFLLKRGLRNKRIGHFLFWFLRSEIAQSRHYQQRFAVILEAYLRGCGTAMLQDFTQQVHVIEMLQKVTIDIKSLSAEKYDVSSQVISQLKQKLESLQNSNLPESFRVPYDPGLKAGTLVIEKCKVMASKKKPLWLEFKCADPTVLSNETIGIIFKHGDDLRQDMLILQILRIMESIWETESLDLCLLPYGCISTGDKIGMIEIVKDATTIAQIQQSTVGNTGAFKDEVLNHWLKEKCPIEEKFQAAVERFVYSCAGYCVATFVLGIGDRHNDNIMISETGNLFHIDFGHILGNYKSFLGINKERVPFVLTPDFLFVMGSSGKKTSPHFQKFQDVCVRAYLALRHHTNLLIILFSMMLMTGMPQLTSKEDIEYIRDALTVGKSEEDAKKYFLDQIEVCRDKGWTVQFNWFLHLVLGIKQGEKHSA
Method: as §7, §8, §9, §10

PIK3Cb (PI3Kbeta) [10] = target: T12, PIK3Cb (PI3Kbeta) (Homo sapiens, UniProt P42338); experiment: as above; settings: for pIC50: HL-60 + RAW 264.7 mixed lysate
T12 construct: Cell lysates from a human (HL60) and a mouse cell line (Raw 264.7) were prepared; endogenous in cells; host or cells: HL60
T12 sequence (P42338 whole entry): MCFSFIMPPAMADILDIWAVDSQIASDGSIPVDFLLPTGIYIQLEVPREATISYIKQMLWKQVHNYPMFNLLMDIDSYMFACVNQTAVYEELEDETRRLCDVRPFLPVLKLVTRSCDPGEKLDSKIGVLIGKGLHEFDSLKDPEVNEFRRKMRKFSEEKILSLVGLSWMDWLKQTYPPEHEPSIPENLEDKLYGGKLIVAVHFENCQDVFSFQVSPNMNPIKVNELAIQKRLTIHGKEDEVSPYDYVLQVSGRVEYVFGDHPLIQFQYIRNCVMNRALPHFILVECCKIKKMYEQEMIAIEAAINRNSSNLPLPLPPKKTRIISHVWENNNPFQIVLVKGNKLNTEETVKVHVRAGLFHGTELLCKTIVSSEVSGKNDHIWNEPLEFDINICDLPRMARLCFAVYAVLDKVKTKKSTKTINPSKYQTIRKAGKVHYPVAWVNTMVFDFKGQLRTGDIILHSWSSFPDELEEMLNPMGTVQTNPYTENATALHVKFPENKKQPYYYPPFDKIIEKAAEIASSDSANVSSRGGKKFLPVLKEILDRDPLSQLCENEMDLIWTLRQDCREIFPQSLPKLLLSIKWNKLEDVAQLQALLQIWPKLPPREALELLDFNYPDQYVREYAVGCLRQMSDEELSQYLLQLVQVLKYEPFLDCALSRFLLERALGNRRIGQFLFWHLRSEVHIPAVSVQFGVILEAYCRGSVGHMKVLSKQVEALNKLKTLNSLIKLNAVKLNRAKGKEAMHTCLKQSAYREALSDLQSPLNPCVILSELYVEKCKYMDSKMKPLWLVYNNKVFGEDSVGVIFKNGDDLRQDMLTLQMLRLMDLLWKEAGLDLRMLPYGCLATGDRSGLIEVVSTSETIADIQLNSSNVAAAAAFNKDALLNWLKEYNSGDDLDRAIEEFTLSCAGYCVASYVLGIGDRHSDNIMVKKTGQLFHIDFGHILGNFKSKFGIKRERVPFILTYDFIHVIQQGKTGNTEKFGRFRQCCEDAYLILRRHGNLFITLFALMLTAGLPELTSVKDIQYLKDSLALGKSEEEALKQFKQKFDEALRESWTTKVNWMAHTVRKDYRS
T12 sequence (P27986 whole entry partner): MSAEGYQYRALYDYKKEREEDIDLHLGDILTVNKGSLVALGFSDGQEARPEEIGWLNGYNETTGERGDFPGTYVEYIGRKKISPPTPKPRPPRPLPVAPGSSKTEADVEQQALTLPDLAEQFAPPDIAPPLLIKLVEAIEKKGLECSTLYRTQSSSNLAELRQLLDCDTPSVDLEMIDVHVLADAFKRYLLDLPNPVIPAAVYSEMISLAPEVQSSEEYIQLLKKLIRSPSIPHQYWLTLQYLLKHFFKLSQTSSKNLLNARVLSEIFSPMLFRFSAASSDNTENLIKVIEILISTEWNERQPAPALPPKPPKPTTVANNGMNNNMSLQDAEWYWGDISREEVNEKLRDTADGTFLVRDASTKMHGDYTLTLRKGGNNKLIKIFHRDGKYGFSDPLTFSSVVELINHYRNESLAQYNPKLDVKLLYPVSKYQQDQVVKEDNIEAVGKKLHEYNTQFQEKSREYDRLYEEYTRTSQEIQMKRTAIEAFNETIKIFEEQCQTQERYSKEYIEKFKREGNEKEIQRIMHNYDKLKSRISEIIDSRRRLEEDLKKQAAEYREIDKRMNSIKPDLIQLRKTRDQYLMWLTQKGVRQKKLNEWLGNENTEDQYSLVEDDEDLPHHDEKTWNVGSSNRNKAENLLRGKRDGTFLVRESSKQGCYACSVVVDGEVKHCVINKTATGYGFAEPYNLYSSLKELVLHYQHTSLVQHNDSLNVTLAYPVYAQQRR
Method: as §7, §8, §9, §10

PIK3C3 = target: T13, PIK3C3 (Homo sapiens, UniProt Q8NEB9); experiment: as above; settings: Experiment 1 (human/mouse 1); HL-60 + RAW 264.7 mixed lysate
T13 construct: Cell lysates from a human (HL60) and a mouse cell line (Raw 264.7) were prepared; endogenous in cells; host or cells: HL60
Method: as §7, §8, §9, §10

PIK3Ca = target: T14, PIK3Ca (Homo sapiens, UniProt P42336); experiment: as above; settings: for pIC50: HL-60 + RAW 264.7 mixed lysate
T14 construct: Cell lysates from a human (HL60) and a mouse cell line (Raw 264.7) were prepared; endogenous in cells; host or cells: HL60
T14 sequence (P42336 whole entry): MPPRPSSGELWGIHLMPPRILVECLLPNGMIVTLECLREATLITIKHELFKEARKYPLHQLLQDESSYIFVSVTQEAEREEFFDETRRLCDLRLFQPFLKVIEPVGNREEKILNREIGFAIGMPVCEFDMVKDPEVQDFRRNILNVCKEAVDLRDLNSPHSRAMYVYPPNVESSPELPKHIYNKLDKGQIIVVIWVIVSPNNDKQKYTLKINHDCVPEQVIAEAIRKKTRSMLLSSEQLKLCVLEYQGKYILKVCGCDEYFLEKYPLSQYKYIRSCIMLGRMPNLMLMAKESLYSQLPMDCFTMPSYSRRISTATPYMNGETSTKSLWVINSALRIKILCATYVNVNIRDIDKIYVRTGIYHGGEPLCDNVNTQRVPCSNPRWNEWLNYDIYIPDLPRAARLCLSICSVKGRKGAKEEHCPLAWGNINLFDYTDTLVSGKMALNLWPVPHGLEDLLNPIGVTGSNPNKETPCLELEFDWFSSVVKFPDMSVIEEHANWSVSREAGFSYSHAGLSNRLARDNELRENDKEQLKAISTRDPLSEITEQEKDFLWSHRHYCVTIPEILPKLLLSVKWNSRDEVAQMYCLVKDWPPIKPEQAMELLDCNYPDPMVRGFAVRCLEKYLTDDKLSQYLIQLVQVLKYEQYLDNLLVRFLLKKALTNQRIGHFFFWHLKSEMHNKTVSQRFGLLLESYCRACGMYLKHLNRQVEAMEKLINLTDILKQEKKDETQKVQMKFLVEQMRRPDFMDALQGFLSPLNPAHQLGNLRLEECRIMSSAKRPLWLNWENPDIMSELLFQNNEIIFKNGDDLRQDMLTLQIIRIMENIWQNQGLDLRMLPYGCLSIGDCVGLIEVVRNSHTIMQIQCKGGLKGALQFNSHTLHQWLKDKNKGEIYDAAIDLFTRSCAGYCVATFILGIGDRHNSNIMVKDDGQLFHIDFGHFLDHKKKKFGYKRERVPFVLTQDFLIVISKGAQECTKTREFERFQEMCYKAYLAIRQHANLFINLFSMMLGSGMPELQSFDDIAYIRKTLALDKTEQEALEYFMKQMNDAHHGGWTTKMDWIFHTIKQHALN
T14 sequence (P27986 whole entry partner): as the sequence (P27986 whole entry partner) above
Method: as §7, §8, §9, §10

[11] = potency ratio across species, average of two experiments

potency for PI3Kβ in mouse compared to human (PI3Kβ [1]): two- to four-fold lower
potency for PI3Kγ in mouse compared to human (PI3Kγ [2]): two- to four-fold lower
potency for PI3Kβ in rat compared to human (PI3Kβ [4]): two- to four-fold lower
SMILES: CC(C)(C)NS(=O)(=O)c1cncc(-c2cc(F)c3nc(N)nn3c2)c1 [compound 2]
potency for PI3Kγ in rat compared to human (PI3Kγ [3]): two- to four-fold lower

pIC50 (PIK3Cb (PI3Kbeta) [5]; Experiment 1 (human/mouse 1)): 6.60
pIC50 (PIK3Cb (PI3Kbeta) [5]; Experiment 2 (human/mouse 2)): 6.79
pIC50 (PIK4Ca; Experiment 1 (human/mouse 1)): ≤ 5.52
pIC50 (PIK4Ca; Experiment 2 (human/mouse 2)): ≤ 5.52
pIC50 (PIK3Cd (PI3Kδ) [6]; Experiment 1 (human/mouse 1)): 5.88
pIC50 (PIK3Cd (PI3Kδ) [6]; Experiment 2 (human/mouse 2)): 5.89
pIC50 (PIK3Cd (PI3Kδ) [7]; Experiment 1 (human/mouse 1)): 5.97
pIC50 (PIK3Cd (PI3Kδ) [7]; Experiment 2 (human/mouse 2)): 5.82
Average ratio human mouse, PIK3Cd (PIK3Cd (PI3Kδ) [7]; [11]): 1.0
pIC50 (PIK3R4): ≤ 5.52
pIC50 (PIK4Cb; Experiment 1 (human/mouse 1)): ≤ 5.52
pIC50 (PIK4Cb; Experiment 2 (human/mouse 2)): ≤ 5.52
pIC50 (PIK3Cg (PI3Kγ) [8]; Experiment 1 (human/mouse 1)): 7.66
pIC50 (PIK3Cg (PI3Kγ) [8]; Experiment 2 (human/mouse 2)): 7.57
ratio of the IC50 for PIK3CD and PIK3CG (selectivity window) (PIK3Cg (PI3Kγ) [8]; in humans): 48
Average ratio human mouse, PIK3Cg (PIK3Cg (PI3Kγ) [8]; [11]): 2.61
pIC50 (PIK3Cg (PI3Kγ) [9]; Experiment 1 (human/mouse 1)): 7.24
pIC50 (PIK3Cg (PI3Kγ) [9]; Experiment 2 (human/mouse 2)): 7.15
IC50 ratio for PIK3CD and PIK3CG (selectivity window) (PIK3Cg (PI3Kγ) [9]; in mouse): 23
pIC50 (PIK3Cb (PI3Kbeta) [10]; Experiment 1 (human/mouse 1)): 6.87
pIC50 (PIK3Cb (PI3Kbeta) [10]; Experiment 2 (human/mouse 2)): 6.55
Average ratio human mouse, PIK3Cb (PIK3Cb (PI3Kbeta) [10]; [11]): 0.87
pIC50 (PIK3C3): ≤ 5.52
pIC50 (PIK3Ca; Experiment 1 (human/mouse 1)): 5.62
pIC50 (PIK3Ca; Experiment 2 (human/mouse 2)): 5.59
Average ratio human mouse, PIK3Ca (PIK3Ca; [11]): app. 1
SMILES: CC(C)(C)NS(=O)(=O)c1cncc(-c2ccc3nc(N)nn3c2)c1 [compound 1]
